Assay results as given in US5574043A, “Certain [1,2,5-thiadiazol-4-yl]-1-azabicyclo [3.2.1]octane derivatives and their pharmaceutical uses” (Novo Nordisk A/S, priority 1995, dated 1996).
Where a name gives a salt, the structure may show the parent alone.

Experiments:
[1] = in vivo; cited from earlier work
[2] = system: central and peripheral muscarinic effects; details: cited from earlier work
[3] = target: muscarinic acetylcholine receptors; experiment: Inhibition of specific binding of 3H-Oxotremorine-M (OXO BINDING) in vitro, rat cortex; set-up: species or system male Wistar rats; details: rat cortex homogenate, 3H-Oxotremorine 1.0 nM, 30 min at 25° C., pH 7.4
Outline: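 Washed male Wistar rat cortex membranes in 20 mM Hepes pH 7.4 incubated 30 min at 25° C with 1.0 nM ³H-Oxotremorine-M (final) and test compound; nonspecific binding with 1 μg/ml arecoline. Filtration and scintillation counting; IC50 (ng/ml) for specific binding calculated assuming mass-action kinetics.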

COC(=O)C1=CCCN(C)C1 [Arecoline, methyl 1-methyl-1,2,5,6-tetrahydropyridine-3carboxylate]
biological half life [1]: very short | separation between central and peripheral muscarinic effects [2]: small separation

COc1nsnc1C1=C(Cl)C2CCCN(C1)C2.O=C(O)C(=O)O (centres unmarked) [Compound 64, 4-Chloro-3-(3-methoxy-1,2,5-thiadiazol-4-yl)-1-azabicyclo[3.3.1]non-3-ene oxalate]
Inhibition in vitro OXO BINDING IC50 [3]: 8.2 ng/mL

CCCCCCSc1nsnc1[C@@H]1CN2CC[C@H]1C2 (relative stereo) [Compound 34, Endo-3-(3-hexylthio-1,2,5-thiadiazol-4-yl)-1-azabicyclo[2.2.1]heptane fumarate]
Inhibition in vitro OXO BINDING IC50 [3]: 7.9 ng/mL

CCCCCSc1nsnc1[C@H]1CN2CCC[C@H]1C2 (relative stereo) [Compound 31, Exo-6-(3-pentylthio-1,2,5-thiadiazol-4-yl)-1-azabicyclo[3.2.1]octane oxalate]
Inhibition in vitro OXO BINDING IC50 [3]: 0.6 ng/mL

c1ccc(CSc2nsnc2[C@H]2CN3CCC[C@@H]2C3)cc1 (relative stereo) [Compound 88, Endo-6-(3-benzylthio-1,2,5-thiadiazol-4-yl)-1-azabicyclo[3.2.1]octane oxalate]
Inhibition in vitro OXO BINDING IC50 [3]: 6.1 ng/mL

CCCCOc1nsnc1C1=C(Cl)C2CCCN(C1)C2.O=C(O)C(=O)O (centres unmarked) [Compound 93, 4-Chloro-3-(3-butoxy-1,2,5-thiadiazol-4-yl)-1-azabicyclo[3.3.1]non-3-ene oxalate]
Inhibition in vitro OXO BINDING IC50 [3]: 9.0 ng/mL

CSc1nsnc1[C@@H]1CN2CCC[C@H]1C2 (relative stereo) [Compound 85, Endo-6-(3-methylthio-1,2,5-thiadiazol-4-yl)-1-azabicyclo[3.2.1]octane oxalate]
Inhibition in vitro OXO BINDING IC50 [3]: 7.2 ng/mL

CCCCCOc1nsnc1C1CN2CCC1CC2.O=C(O)C(=O)O (centres unmarked) [Compound 50, 3-(3-Pentyloxy-1,2,5-thiadiazol-4-yl)-1-azabicyclo[2.2.2]octane oxalate]
Inhibition in vitro OXO BINDING IC50 [3]: 1.0 ng/mL

COc1nsnc1C1=CN2CCC1CC2.O=C(O)C(=O)O [Compound 4, 3-(3-Methoxy-1,2,5-thiadiazol-4-yl)-1-azabicyclo[2.2.2]oct-2-ene oxalate]
Inhibition in vitro OXO BINDING IC50 [3]: 21 ng/mL

O=C(O)/C=C/C(=O)O.c1nsnc1C1CN2CCC1CC2 (centres unmarked) [Compound 132, 3-(1,2,5-Thiadiazol-3-yl)-1-azabicyclo[2.2.2]octane fumarate]
Inhibition in vitro OXO BINDING IC50 [3]: 0.96 ng/mL

CCOc1nsnc1[C@H]1CN2CCC[C@@H]1C2 (relative stereo) [Compound 20, Endo-6-(3-ethoxy-1,2,5-thiadiazol-4-yl)-1-azabicyclo[3.2.1]octane oxalate]
Inhibition in vitro OXO BINDING IC50 [3]: 11 ng/mL

Clc1nsnc1C1CN2CCC1CC2.O=C(O)C(=O)O (centres unmarked) [Compound 8, 3-(3-Chloro-1,2,5-thiadiazol-4-yl)-1-azabicyclo[2.2.2]octane oxalate]
Inhibition in vitro OXO BINDING IC50 [3]: 5.2 ng/mL

Clc1nsnc1C1(Cl)CN2CCC1CC2.O=C(O)C(=O)O (centres unmarked) [Compound 1, 3-Chloro-3-(3-chloro-1,2,5-thiadiazol-4-yl)-1-azabicyclo[2.2.2]-octane oxalate]
Inhibition in vitro OXO BINDING IC50 [3]: 156 ng/mL

CCCCSc1nsnc1[C@H]1CN2CCC[C@@H]1C2 (relative stereo) [Compound 24, Endo-6-(3-butylthio-1,2,5-thiadiazol-4-yl)-1-azabicyclo[3.2.1]octane oxalate]
Inhibition in vitro OXO BINDING IC50 [3]: 0.52 ng/mL

CCSc1nsnc1[C@H]1CN2CCC[C@@H]1C2 (relative stereo) [Compound 25, Endo-6-(3-ethylthio-1,2,5-thiadiazol-4-yl)-1-azabicyclo[3.2.1]octane oxalate]
Inhibition in vitro OXO BINDING IC50 [3]: 1.9 ng/mL

c1ccc(OCCSc2nsnc2[C@H]2CN3CCC[C@H]2C3)cc1 (relative stereo) [Compound 133, Exo-6-(3-(2-phenoxyethylthio)-1,2,5-thiadiazol-4-yl)-1-azabicyclo[3.2.1]octane oxalate]
Inhibition in vitro OXO BINDING IC50 [3]: 0.45 ng/mL
